From patent publication US6432969B1, “N-(substituted glycyl)-2 cyanopyrrolidines, pharmaceutical compositions containing them and their use in inhibiting dipeptidyl peptidase-IV” (Novartis AG, priority 2000, dated 2002)

Key:
[1] = biological target: T1, DPP-IV activity from human colonic carcinoma cell (Caco-2) extracts (Homo sapiens, UniProt P27487); assay: Caco-2 DPP-IV Assay; format: biochemical; details: Caco-2 cell extract, substrate H-Ala-Pro-pNA, 8-point dose-response
T1 construct: Cell extract is prepared from cells solubilized in 10 mM Tris HCl; host or cells: Caco-2, differentiated to induce DPP-IV expression
Description: The human colonic carcinoma cell line Caco-2 was obtained from the American Type Culture Collection (ATCC HTB 37). Differentiation of the cells to induce DPP-IV expression was accomplished as described by Reisher, et al. in an article entitled “Increased expression of intestinal cell line Caco-2” in Proc. Natl. Acad. Sci., Vol. 90, pgs. […] Cell extract is prepared from cells solubilized in 10 mM Tris HCl, 0.15 M NaCl, 0.04 t.i.u.aprotinin, 0.5% nonidet-P40, pH 8.0, which is centrifuged at 35,000 g for 30 min. at 4° C. to remove cell debris. The assay is conducted by adding 20 μg solubilized Caco-2 protein, diluted to a final volume of 125 μl in assay buffer (25 mM Tris HCl pH 7.4, 140 mM NaCl, 10 mM KCl, 1% bovine serum albumin) to microtiter plate wells. After a 60 min. incubation at room temperature, the reaction is initiated by adding 25 μl of 1 mM substrate (H-Alanine-Proline-pNA; pNA is p-nitroaniline). […] A standard curve of free p-nitroaniline is generated using 0-500 μM solutions of free pNA in assay buffer. The curve generated is linear and is used for interpolation of substrate consumption (catalytic activity in nmoles substrate cleaved/min).
The potency of the test compounds as DPP-IV inhibitors, expressed as IC50, is calculated from 8-point, dose-response curves using a 4-parameter logistic function.

[2] = biological target: T2, DPP-IV activity in human plasma (Homo sapiens, UniProt P27487); assay: Human plasma DPP-IV assay; format: biochemical; details: substrate H-Gly-Pro-AMC
T2 construct: from tissue; host or cells: human plasma
Description: (§1) Briefly, 5 μl of plasma are added to 96-well flat-bottom micortiter plates (Falcon), followed by the addition of 5 μl of 80 mM MgCl2 in incubation buffer (25 mMHEPES, 140 mM NaCl, 1% RIA-grade BSA, pH 7.8). After a 60 min. incubation at room temperature, the reaction is initiated by the addition of 10 μl of incubation buffer containing 0.1 mM substrate (H-Glycine-Proline-AMC; AMC is 7-amino 4-methylcoumarin). The plates are covered with aluminum foil (or kept in the dark) and incubated at room temperature for 20 min. […] A fluorescence-concentration curve of free AMC is generated using 0-50 μM solutions of AMC in assay buffer. The curve generated is linear and is used for interpolation of substrate consumption (catalytic activity in nmoles substrate cleaved/min). As with the previous assay, the potency of the test compounds as DPP-IV inhibitors, expressed as IC50, is calculated from 8-point, dose-response curves using a 4 parameter logistic function.

[3] = biological target: T3, DPP-IV activity in rat plasma (Rattus norvegicus, UniProt P14740); assay: Rat plasma DPP-IV assay; format: biochemical; details: substrate H-Gly-Pro-AMC
T3 construct: from tissue; host or cells: rat plasma
Description: as §1

T2 sequence (P27487 39-766 limits assumed): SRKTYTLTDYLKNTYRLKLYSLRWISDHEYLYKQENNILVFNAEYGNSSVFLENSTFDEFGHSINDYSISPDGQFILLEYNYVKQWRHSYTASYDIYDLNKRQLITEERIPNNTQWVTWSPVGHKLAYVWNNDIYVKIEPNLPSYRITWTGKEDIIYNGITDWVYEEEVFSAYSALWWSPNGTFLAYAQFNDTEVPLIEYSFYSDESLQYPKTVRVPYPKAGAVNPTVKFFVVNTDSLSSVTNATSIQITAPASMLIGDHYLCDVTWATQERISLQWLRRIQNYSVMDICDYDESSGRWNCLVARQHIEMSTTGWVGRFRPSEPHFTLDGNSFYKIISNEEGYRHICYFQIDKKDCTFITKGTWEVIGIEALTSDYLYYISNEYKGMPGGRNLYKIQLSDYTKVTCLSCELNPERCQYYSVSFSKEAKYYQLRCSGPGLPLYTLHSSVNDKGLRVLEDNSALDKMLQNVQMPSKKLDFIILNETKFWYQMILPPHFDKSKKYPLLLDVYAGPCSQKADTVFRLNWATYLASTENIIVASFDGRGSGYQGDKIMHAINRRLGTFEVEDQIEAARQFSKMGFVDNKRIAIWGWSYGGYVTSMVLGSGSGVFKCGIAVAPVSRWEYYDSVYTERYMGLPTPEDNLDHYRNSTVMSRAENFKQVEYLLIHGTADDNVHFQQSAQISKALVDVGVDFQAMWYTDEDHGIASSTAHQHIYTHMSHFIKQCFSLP
T3 sequence (P14740 38-767 limits assumed): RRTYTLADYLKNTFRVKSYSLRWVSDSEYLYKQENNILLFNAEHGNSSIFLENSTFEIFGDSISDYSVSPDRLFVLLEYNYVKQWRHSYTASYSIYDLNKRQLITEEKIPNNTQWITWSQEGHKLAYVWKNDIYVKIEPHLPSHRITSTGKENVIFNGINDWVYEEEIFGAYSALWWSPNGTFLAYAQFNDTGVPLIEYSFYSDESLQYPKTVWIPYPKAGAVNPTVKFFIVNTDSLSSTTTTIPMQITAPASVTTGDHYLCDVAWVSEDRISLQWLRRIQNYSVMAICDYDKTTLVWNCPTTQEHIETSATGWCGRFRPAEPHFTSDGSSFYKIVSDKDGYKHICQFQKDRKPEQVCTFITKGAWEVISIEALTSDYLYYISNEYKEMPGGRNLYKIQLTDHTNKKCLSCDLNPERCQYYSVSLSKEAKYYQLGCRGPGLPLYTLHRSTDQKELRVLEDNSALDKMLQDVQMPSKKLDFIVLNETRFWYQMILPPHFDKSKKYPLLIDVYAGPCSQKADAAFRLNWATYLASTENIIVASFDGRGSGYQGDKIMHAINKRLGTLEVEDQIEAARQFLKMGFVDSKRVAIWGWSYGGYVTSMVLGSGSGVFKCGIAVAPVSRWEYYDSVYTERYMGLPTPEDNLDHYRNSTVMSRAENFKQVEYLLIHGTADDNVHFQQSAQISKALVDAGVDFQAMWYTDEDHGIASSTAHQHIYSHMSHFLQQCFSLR
T1 sequence (P27487 whole entry): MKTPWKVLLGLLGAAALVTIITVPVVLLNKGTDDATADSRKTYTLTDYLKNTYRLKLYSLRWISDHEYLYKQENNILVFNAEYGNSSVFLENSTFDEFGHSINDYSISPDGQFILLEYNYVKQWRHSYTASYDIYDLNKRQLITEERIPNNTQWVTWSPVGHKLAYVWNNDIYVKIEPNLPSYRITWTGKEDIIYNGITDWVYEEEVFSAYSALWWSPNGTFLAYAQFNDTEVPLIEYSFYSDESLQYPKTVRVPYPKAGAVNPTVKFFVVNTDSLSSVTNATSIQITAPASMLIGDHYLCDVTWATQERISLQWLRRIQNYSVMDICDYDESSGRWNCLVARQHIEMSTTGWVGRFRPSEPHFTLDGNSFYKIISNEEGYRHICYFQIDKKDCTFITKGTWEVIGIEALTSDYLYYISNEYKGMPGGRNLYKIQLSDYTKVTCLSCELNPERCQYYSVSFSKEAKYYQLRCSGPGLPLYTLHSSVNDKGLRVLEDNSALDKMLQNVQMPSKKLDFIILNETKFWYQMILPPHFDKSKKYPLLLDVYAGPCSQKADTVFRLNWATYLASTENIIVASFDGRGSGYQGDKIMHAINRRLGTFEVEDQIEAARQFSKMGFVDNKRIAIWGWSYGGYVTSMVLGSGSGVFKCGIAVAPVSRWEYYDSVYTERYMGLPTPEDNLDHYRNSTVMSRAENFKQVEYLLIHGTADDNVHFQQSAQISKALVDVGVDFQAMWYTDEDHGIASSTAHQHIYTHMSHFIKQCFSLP

Compound	melting point [°C]	IC50 [1] [nM]	IC50 [2] [nM]	IC50 [3] [nM]
N#C[C@@H]1CCCN1C(=O)CN[C@H]1CC[C@H](Oc2cccc(C(F)(F)F)c2)CC1 [Ex. 2GG, 1-[[[4-[(3-trifluoromethyl)phenoxy]cyclohexyl]amino]acetyl]-2-cyano-(S)-pyrrolidine]		22	20	10
N#C[C@@H]1CCCN1C(=O)CN[C@H]1CC[C@H](Oc2cccc(Cl)c2)CC1 [Ex. 2HH]		18	18	10
CC(C)N(C(=O)NCC(C)(C)NCC(=O)N1CCC[C@H]1C#N)C(C)C [Ex. 2J, 1-[[[2-[[(diisopropylamino)carbonyl]amino]-1,1-dimethylethyl]amino]acetyl]-2-cyano-(S)-pyrrolidine]		41	421	49
CC(C)N(C(=O)N1CCC(NCC(=O)N2CCC[C@H]2C#N)CC1)C(C)C [Ex. 2JJ, 1-[[[1-[(diisopropylamino)carbonyl]-4-piperidinyl]amino]acetyl]-2-cyano-(S)-pyrrolidine]		94	45	5
N#C[C@@H]1CCCN1C(=O)CNC1CCN(c2nc(-c3ccccc3)cs2)CC1 [Ex. 2KK, 1-[[[1-(4-phenyl-2-thiazolyl)-4-piperidinyl]amino]acetyl]-2-cyano-(S)-pyrrolidine]	141 to 143	28	38	12
N#C[C@@H]1CCCN1C(=O)CN[C@H]1CC[C@H](Nc2nccc(C(F)(F)F)n2)CC1 [Ex. 2O, 1-[[[4-[[(4-trifluoromethyl)-2-pyrimidinyl]amino]cyclohexyl]amino]acetyl]-2-cyano-(S)-pyrrolidine]		8	8	9
N#C[C@@H]1CCCN1C(=O)CN[C@H]1CC[C@H](NS(=O)(=O)c2ccc(Cl)cc2)CC1 [Ex. 2Q, 1-[[[[4-[(4-chlorophenyl)sulfonyl]amino]cyclohexyl]amino]acetyl]-2-cyano-(S)-pyrrolidine]		30	38	38
N#C[C@@H]1CCCN1C(=O)CN[C@H]1CC[C@H](NS(=O)(=O)c2ccc(C(F)(F)F)cc2)CC1 [Ex. 2Z, 1-[[[4-[[[(4-trifluoromethyl)phenyl]sulfonyl]amino]cyclohexyl]amino]acetyl]-2-cyano-(S)-pyrrolidine]		66	122	88
N#C[C@@H]1CCCN1C(=O)CNC1CCN(S(=O)(=O)c2ccc(C(F)(F)F)cc2)CC1 [Ex. 4C]		83	68	48

More lines, now with the values ahead:

melting point [°C]	IC50 [1] [nM]	IC50 [2] [nM]	IC50 [3] [nM]	Compound
40 to 42	99	50	25	Cc1ccc(C(=O)NCC(C)(C)NCC(=O)N2CCC[C@H]2C#N)cc1 [Ex. 2C, 1-[[[2-[(4-methylbenzoyl)amino]-1,1-dimethylethyl]amino]acetyl]-2-cyano-(S)pyrrolidine]
38 to 40	27	27	19	CC(C)(CNc1cc(C(F)(F)F)ccn1)NCC(=O)N1CCC[C@H]1C#N [Ex. 2E, 1-[[[2-[(4-trifluoromethyl-2-pyridinyl)amino]-1,1-dimethylethyl]amino]acetyl]-2-cyano-(S)-pyrrolidine]
	80	73	31	CC(C)(CNC(=O)c1ccc(Cl)cc1)NCC(=O)N1CCC[C@H]1C#N [Ex. 2I, 1-[[[2-[(4-chlorobenzoyl)amino]-1,1-dimethylethyl]amino]acetyl]-2-cyano-(S)-pyrrolidine]
	44	37	12	N#C[C@@H]1CCCN1C(=O)CNC1CCN(C(=O)Nc2ccc(Cl)cc2)CC1 [Ex. 2II, 1-[[[1-[[(4-chlorophenyl)amino]carbonyl]-4-piperidinyl]amino]acetyl]-2-cyano-(S)-pyrrolidine]
	56	305	38	CC(C)(CNC(=O)Nc1ccc(Cl)cc1)NCC(=O)N1CCC[C@H]1C#N [Ex. 2K, 1-[[[2-[[[(4-chlorophenyl)amino]carbonyl]amino]-1,1-dimethylethyl]amino]acetyl]-2-cyano-(S)-pyrrolidine]
	61	649	123	N#C[C@@H]1CCCN1C(=O)CNC1CCN(c2nc(-c3ccc(Cl)cc3)cs2)CC1 [Ex. 2LL]
	22	71	58	COc1ccc(-c2csc(N3CCC(NCC(=O)N4CCC[C@H]4C#N)CC3)n2)cc1 [Ex. 2MM]
	15	16	11	N#C[C@@H]1CCCN1C(=O)CN[C@H]1CC[C@H](Nc2ncccc2C(F)(F)F)CC1 [Ex. 2P, 1-[[4-[[(3-trifluoromethyl-2-pyridinyl)amino]cyclohexyl]amino]acetyl]-2-cyano-(S)-pyrrolidine]
	31	26	37	N#C[C@@H]1CCCN1C(=O)CN[C@H]1CC[C@H](NC(=O)c2ccc(Cl)cc2)CC1 [Ex. 2T, 1-[[[4-[(4-chlorobenzoyl)amino]cyclohexyl]amino]acetyl]-2-cyano-, (S)-pyrrolidine]
	35	77	31	N#C[C@@H]1CCCN1C(=O)CNC1CCN(C(=O)c2ccc(Cl)cc2)CC1 [Ex. 4B]
	114	104	59	N#C[C@@H]1CCCN1C(=O)CNC1CCN(S(=O)(=O)c2ccccc2)CC1 [Ex. 4D, 1-[[(1-phenylsulfonyl-4-piperidinyl)amino]acetyl]-2-cyano-(S)-pyrrolidine]
	36	5	4	N#C[C@@H]1CCCN1C(=O)CN[C@H]1CC[C@H](NC(=O)c2ccc(F)cc2)CC1 [Ex. 5]
